Our source for the melting point values is a melting point compilation (Tetko et al.; mined from patent text by program, amines drawn as free bases though some values may be those of a salt).

One may read the melting point as the temperature, or range, at which the solid turns liquid. `CC(C)(C)Cc1c(CC(C)(C)C(=O)O)n(Cc2ccc(Cl)cc2)c2ccc(OCc3ccc4scc(Cl)c4n3)cc12` displayed a melting point of 185 to 186 °C. As for `COc1cc(NC(=O)Nc2c(-c3ccccc3C)c3cc4c(cc3oc2=O)CCC4)cc(OC)c1O`, the melting point lay within 176 to 179 °C. The figure for `N#CNc1ccc2c3c(cccc13)CC2` is 163 to 165 °C.

`O=C(NCCN1CCOCC1)c1ccc2nonc2c1` displayed a melting point of 145 to 148 °C. Then `Cc1cc2occ(C=O)c(=O)c2cc1C`, with 154 to 156 °C. For `Clc1ccc2[nH]cc(C3=CCC4(CC3)OCCO4)c2c1`, the melting point lay within 178 to 181 °C. Regarding `O=S(=O)(NCC(O)(Cn1cncn1)c1ccc(F)cc1F)c1ccc(C(F)(F)F)cc1` (stereo not drawn), the melting point fell in the range of 161 to 162 °C. In turn, `O=C(O)Cc1ccc2[nH]cc(CCNC(=O)OCc3ccccc3)c2c1` yielded a melting point of 116 to 117 °C. In the case of `O=C(O)c1cccc2c1NCCC2C(=O)O` (stereo not drawn), the melting point lay within 215 to 216 °C. For the compound `Fc1cccc(CSc2nnc(-c3ncnc4[nH]ccc34)o2)c1`, the melting point is 182 to 183 °C. The figure for `CCCCc1nc2c(N)nc3cc(-c4ccccc4OCCC)ccc3c2n1CC(C)C` is 174 to 176 °C; for `CCOC(=O)c1cc2cc(OC)c(OC)cc2s1` it is 84 to 85 °C; for `COc1ccc2c(c1)CC(C(N)=O)N2C(C)=O` (stereo not drawn) it is 196 to 197 °C. In turn, `Cc1oc2ccccc2c(=O)c1C(=O)O` showed a melting point of 120 to 135 °C.

`C[C@H]1C(=O)Nc2ccc(Cl)cc2N1C(=O)OCCBr` registered a melting point of 133 to 136 °C. `Cc1ccc(N2CCN(CCC3NC(=O)c4ccccc43)CC2)cc1C` (stereo not drawn) yielded a melting point of 167 to 169 °C. Regarding `C1C2CC3CC1CC(C2)C3=C1C2CC3CC(C2)CC1C3`, the melting point is 185 to 186 °C. The compound `C#CCOc1nnc(Cl)c2ccccc12` came in with a melting point of 134 to 136 °C. Turning to `COc1ccc2c(c1OC)C=NCN2CCC(=O)O`, the melting point was 226 to 228 °C. The figure for `CCOC(=O)Cc1sc(S)nc1-c1ccc(Cl)cc1` is 176 to 178 °C; for `CC(C)(/C=C\F)C(=O)Nc1ccc(Br)cc1` it is 87 to 90 °C; for `CCOc1nn(-c2ccc(C(F)(F)F)cn2)cc1CCCOc1ccc(OC(C)(C)C(=O)O)cc1` it is 91 to 92 °C. The figure for `CC(=O)N[C@@H](CO)C(=O)NCc1ccc(N)cc1` is 158 to 160 °C; for `ICCCCCCc1ccc(-c2ccccc2)cc1` it is 77 to 77.5 °C. Then `CCOc1c(C(=O)OCC(C)(C)C(O)C(C)(C)C)oc2ccc(OC)cc12` (stereo not drawn), with 100 to 101 °C; and `CS(=O)(=O)Nn1c(=O)[nH]c2cc(C(F)(F)F)c(-n3cnc(C#N)c3)cc2c1=O`, with 143 to 145 °C; and `COc1ccc(C(=O)O)c(C)c1C`, with 214 °C. Compound `CCOC(=O)c1ncn2c1[C@@H]1CCN1C(=O)c1c-2cccc1C(F)(F)F` gave a melting point of 183 to 184 °C.

With `NCCn1c(NC2CCN(Cc3ccccc3)CC2)nc2cccnc21`, the melting point worked out at 102 °C. `CCCc1c(OCc2cccc(OCc3ccc4ccccc4n3)c2)ccc2c(=O)cc(C(=O)O)oc12`: the melting point lay in the range of 218 to 222 °C. As to `O=C(Cc1ccccc1)N1C[C@@H]2SCCC(c3ccccc3)(c3ccccc3)[C@@H]2C1` (racemic), the melting point amounted to 210 °C.

For the compound `C#Cc1ccc(Nc2c(-c3nnc(NCCO)o3)ccc(F)c2F)c(F)c1`, the melting point is 112 to 115 °C. As for `CC(C)(C(=O)O)C(=O)NCCc1cn(C(c2ccccc2)(c2ccccc2)c2ccccc2)cn1`, the melting point was 161 to 162 °C. The figure for `CS(=O)(=O)c1ccc(-c2cc(N)sc2-c2ccc(F)cc2)cc1` is 207 to 209 °C; for `N#Cc1ccc(N2CCN(Cc3ccccc3)CC2)cc1` it is 104 to 105 °C; for `CNC(=S)NS(=O)(=O)c1cc(CCNC(=O)c2cc(Cl)ccc2OC)ccc1-c1ccc(OC)cc1` it is 185 to 188 °C. `O=C(O)C(CF)=NOCC=Cc1ccccc1` returned a melting point of 81 to 83 °C. With `CN1C(=O)CC[C@]2(C)c3ccc(-c4cccc(C=O)c4)cc3CC[C@@H]12`, the melting point was 163 °C. The compound `CC(=O)c1ccc(-c2cccc(-c3nc(C(C)C)[nH]c3-c3cccc(C)n3)c2)cc1` displayed a melting point of 84 to 87 °C. For the compound `C[C@]1(COc2ccc3nc(N4CCC(=Cc5ccc(OC(F)(F)F)cc5)CC4)ccc3c2)Cn2cc([N+](=O)[O-])nc2O1`, the melting point fell in the range of 194 to 196 °C. `O=C1c2cc(Cl)ccc2-n2cncc2[C@@H]2CCCN12` displayed a melting point of 216 to 217 °C.

In the case of `Cn1ncc2nc3cccc(F)c3c(Cl)c21`, the melting point came out at 269 °C. As for `CC(=O)SCC1CCCCCCC(C(=O)N2C(=O)OCC2Cc2ccccc2)NC1=O` (stereo not drawn), the melting point is 65 to 66 °C. As for `CC(C)(C)OC(=O)N[C@H](Cc1ccc(C(F)(F)F)cc1)[C@@H](O)c1ccc(F)cc1` (racemic), the melting point was in the range of 158 to 159 °C.

`Cn1nnc(-c2ccc(OCC(O)CNCCOc3ccc(O)c(C(N)=O)c3)cc2)n1` (stereo not drawn) gave a melting point of 174 to 175 °C. In the case of `CCOC(=O)C(=Cc1cccc([N+](=O)[O-])c1)C(=O)C(Cl)(Cl)Cl`, the melting point is 106 to 107 °C. For `O=C(OCc1ccccc1)[C@@H](Cc1ccccc1)NS(=O)(=O)c1ccc2ccccc2c1`, the melting point came to 107 °C. Regarding `Cc1ccccc1C(CCC(=O)O)Oc1cc(OCc2ccsc2)ccc1-c1ncco1` (racemic), the melting point fell in the range of 112 to 114 °C.

As to `CC(=O)N1c2ccccc2Sc2cc(O)c3ccccc3c21`, the melting point came to 230 °C.

For the compound `O=[N+]([O-])c1cc(NCCO)ccc1NCCO`, the melting point was found to be 107 °C. `Clc1ccc(-c2nc(Cl)c3ccccc3n2)cc1` showed a melting point of 166 to 167 °C. As to `COC(=O)CN(CCNC(=O)OC(C)(C)C)C(=O)Cc1cc2ccc(C)nc2[nH]c1=O`, the melting point lay within 98 to 100 °C. Take `Fc1ccc(Oc2cc3cnc(Cl)nc3cn2)c(F)c1`: the melting point fell in the range of 210 to 212 °C. The figure for `CC[C@H](C)[C@H](NC(=O)[C@H](Cc1ccc(O)cc1)NC(=O)OC(C)(C)C)C(=O)NCCCBr` is 96 to 100 °C.

As to `CCCn1nnc(NC(=O)C(c2ccccc2)c2ccccc2)n1`, the melting point lay in the range of 124 to 125 °C. The figure for `COc1ccc(C(=O)C=Cc2c(O)cc(OCCBr)cc2O)cc1O` is 158 to 162 °C; for `CC(Cn1ccc(-c2ccccc2)n1)C(=O)N(C)C` (stereo not drawn) it is 68 to 71 °C; for `CCOC(=O)C(=C1SC(=S)N(CC(=O)O)C1=O)c1csc(NC(=O)c2ccccc2)n1` it is 278 to 281 °C.

With `COc1ccccc1C(=Cc1ccccc1[N+](=O)[O-])C(=O)O`, the melting point was in the range of 217 to 219 °C. `CC(C)N(c1nc(N)nc(-c2cc(Cl)ccc2Cl)n1)C(C)C` gave a melting point of 158 to 159 °C. On to `CCC(Oc1ccccc1OC)C(=O)OC1CC(O)C=C2C=CC(C)C(CCC3CC(O)CC(=O)O3)C21` (mixture of isomers), for which the melting point fell in the range of 116 to 117 °C.

As to `CCOC(=O)c1cc2c(=O)n(C)c3ccccc3n2c1`, the melting point fell in the range of 197 to 198 °C.

Regarding `Cc1cccc(-n2nc(C)cc2-c2ccnc(S(C)(=O)=O)c2)c1`, the melting point was in the range of 140 to 142 °C. Compound `CC12CCC3c4ccc(OCc5ccccc5)cc4CCC3C1CCC2=O` (stereo not drawn) yielded a melting point of 126 to 127 °C. The compound `CON=C(c1noc(C)n1)c1ccccc1COc1ccc(Cl)cc1` registered a melting point of 125 to 126 °C.

`CCOC(=O)c1cnc(-c2cc3cccc(NS(=O)(=O)c4cccs4)c3n2COC)s1` came in with a melting point of 133 to 134 °C.

`CC1(C)CCC(C)(C)c2cc(O)c(N)cc21` gave a melting point of 225 °C. `CNc1nc(Nc2ccccc2C)c2cccc(OC)c2n1` returned a melting point of 190 to 192 °C. `Cc1cc(C(=O)NC(C)CN(C)CC(C)NC(=O)c2cc(C)cc3nc4ccccc4nc23)c2nc3ccccc3nc2c1` (stereo not drawn) gave a melting point of 75 to 78 °C. The compound `COc1ccc(C[N+](=O)[O-])c(C=CC[N+](=O)[O-])c1OCc1ccccc1` displayed a melting point of 149 to 150 °C. The figure for `Cn1ncnc1COc1nn2c(-c3ccccc3F)nncc2c1-c1ccccn1` is 186 to 187 °C; for `Cc1cc(F)c(N)cc1O` it is 147 °C. The compound `Cc1c(C(F)(F)F)cc([N+](=O)[O-])c(Cl)c1[N+](=O)[O-]` gave a melting point of 81 to 82 °C. The figure for `CC(C)(C)[Si](Oc1ccc(C=O)cc1)(c1ccccc1)c1ccccc1` is 103 to 105 °C. Then `O=C(c1ccccc1)N1CCC(c2nn(-c3ccccc3)c3cc(F)ccc23)CC1`, with 149 to 151 °C; and `Cc1cccc2c1C(=O)N1CC[C@H]1C(=O)N2`, with 159 to 160 °C. In turn, `C=CCC1NC(=O)C1C(C)(C)O` (stereo not drawn) registered a melting point of 144 °C. Consider `Cc1nc2cnc3ccccc3c2n1Cc1ccc(Cl)cc1`, for which the melting point was in the range of 183 to 185 °C. With `CC(C)Cc1cc2cc(OCC(=O)O)c(Cl)c(Cl)c2s1`, the melting point was 164 to 165 °C. Take `Cc1c(NC(=O)c2ccc(OCCCC(F)(F)F)cc2F)ccc2cc(CN3CCCC3)cnc12`: the melting point came out at 148 °C.

The compound `CCCCCCCCCCCCCC(=O)NN(C)C` registered a melting point of 63.5 to 64.5 °C. For the compound `CCS(=O)(=O)CCC(=O)NNC(=O)N1Cc2ccccc2Oc2ccc(Cl)cc21`, the melting point was in the range of 181 to 184 °C. `O=C(O)c1ccc(C(=O)Nc2cc3c4c(c2)CCCC4CCC3)nc1` returned a melting point of 252 to 253 °C. As for `FC(F)(F)c1nnc2c3cc(Cl)ccc3ccn12`, the melting point was found to be 228 °C. Regarding `CC(C)(C)c1ccc2c(c1)CCC1=C2CCC(=O)N1`, the melting point was 265 to 268 °C. `CC(C)n1nc(-c2sc(NC(=O)c3c(Cl)cccc3Cl)nc2-c2ccccc2)ccc1=O` had a melting point of 248 to 249 °C. `CC1(C)C=C(C(=NC2CC2)NC#N)c2cc([N+](=O)[O-])ccc2O1` registered a melting point of 206 to 207 °C. The figure for `CC(C)CCOc1c(-c2ccc(S(N)(=O)=O)cc2)cnn(-c2cccc(Cl)c2)c1=O` is 137 to 139 °C.
